Results taken from PubChem BioAssay (NCI).
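1) Cells in 96-well plates. 2) Compound, 48 h, 5 concentrations. 3) Linear interpolation between surrounding doses. 4) Unreached endpoint = highest concentration. At the GI50, growth is halved. Definition used: TGI = concentration required for complete inhibition of growth.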

Key:
Experiment in all cases: NCI anticancer screen, dose series, 48 h
A498 renal = tested on: A498 renal
A549 NSCLC = tested on: A549 NSCLC
ACHN renal = tested on: ACHN renal
BT-549 breast = tested on: BT-549 breast
CCRF-CEM leukemia = tested on: CCRF-CEM leukemia
COLO 205 colon = tested on: COLO 205 colon
DU-145 prostate = tested on: DU-145 prostate
EKVX NSCLC = tested on: EKVX NSCLC
HCT-116 colon = tested on: HCT-116 colon
HCT-15 colon = tested on: HCT-15 colon
HL-60(TB) leukemia = tested on: HL-60(TB) leukemia
HOP-62 NSCLC = tested on: HOP-62 NSCLC
HS 578T breast = tested on: HS 578T breast
HT29 colon = tested on: HT29 colon
K-562 leukemia = tested on: K-562 leukemia
KM12 colon = tested on: KM12 colon
MALME-3M melanoma = tested on: MALME-3M melanoma
MCF7 breast = tested on: MCF7 breast
MDA-MB-231 breast = tested on: MDA-MB-231 breast
MOLT-4 leukemia = tested on: MOLT-4 leukemia
NCI-H226 lung = tested on: NCI-H226 lung
NCI-H460 lung = tested on: NCI-H460 lung
NCI/ADR-RES ovarian = tested on: NCI/ADR-RES ovarian
OVCAR-3 ovarian = tested on: OVCAR-3 ovarian
OVCAR-4 ovarian = tested on: OVCAR-4 ovarian
OVCAR-5 ovarian = tested on: OVCAR-5 ovarian
OVCAR-8 ovarian = tested on: OVCAR-8 ovarian
PC-3 prostate = tested on: PC-3 prostate
RPMI-8226 leukemia = tested on: RPMI-8226 leukemia
RXF 393 renal = tested on: RXF 393 renal
SF-268 CNS = tested on: SF-268 CNS
SF-539 CNS = tested on: SF-539 CNS
SK-MEL-2 melanoma = tested on: SK-MEL-2 melanoma
SK-OV-3 ovarian = tested on: SK-OV-3 ovarian
SNB-75 CNS = tested on: SNB-75 CNS
SR leukemia = tested on: SR leukemia
SW-620 colon = tested on: SW-620 colon
T-47D breast = tested on: T-47D breast
TK-10 renal = tested on: TK-10 renal
UACC-257 melanoma = tested on: UACC-257 melanoma
786-0 renal = tested on: 786-0 renal
CAKI-1 renal = tested on: CAKI-1 renal
HCC-2998 colon = tested on: HCC-2998 colon
HOP-92 NSCLC = tested on: HOP-92 NSCLC
IGROV1 ovarian = tested on: IGROV1 ovarian
LOX IMVI melanoma = tested on: LOX IMVI melanoma
M14 melanoma = tested on: M14 melanoma
MDA-MB-435 = tested on: MDA-MB-435
NCI-H23 lung = tested on: NCI-H23 lung
NCI-H522 lung = tested on: NCI-H522 lung
SF-295 CNS = tested on: SF-295 CNS
SK-MEL-28 melanoma = tested on: SK-MEL-28 melanoma
SK-MEL-5 melanoma = tested on: SK-MEL-5 melanoma
SN12C renal = tested on: SN12C renal
SNB-19 CNS = tested on: SNB-19 CNS
U251 CNS = tested on: U251 CNS
UACC-62 melanoma = tested on: UACC-62 melanoma
UO-31 renal = tested on: UO-31 renal

CC[C@H](Nc1nc(N)nc(C)c1C#N)c1nc2cccc(NCc3ccc(C(=O)NO)cc3)c2c(=O)n1-c1ccccc1
GI50 (A498 renal): 1.04 µM | TGI (A498 renal): 2.42 µM | GI50 (A549 NSCLC): 2.35 µM | TGI (A549 NSCLC): 5.43 µM | GI50 (ACHN renal): 1.94 µM | TGI (ACHN renal): 4.67 µM | GI50 (BT-549 breast): 1.56 µM | TGI (BT-549 breast): 5.2 µM | GI50 (CCRF-CEM leukemia): 0.679 µM | TGI (CCRF-CEM leukemia): > 100 µM | GI50 (COLO 205 colon): 2.05 µM | TGI (COLO 205 colon): 5.31 µM | GI50 (DU-145 prostate): 1.98 µM | TGI (DU-145 prostate): 6.53 µM | GI50 (EKVX NSCLC): 2.1 µM | TGI (EKVX NSCLC): 6.84 µM | GI50 (HCT-116 colon): 1.82 µM | TGI (HCT-116 colon): 4.34 µM | GI50 (HCT-15 colon): 2.29 µM | TGI (HCT-15 colon): 6.25 µM | GI50 (HL-60(TB) leukemia): 3.04 µM | TGI (HL-60(TB) leukemia): > 100 µM | GI50 (HOP-62 NSCLC): 2.35 µM | TGI (HOP-62 NSCLC): 6.22 µM | GI50 (HS 578T breast): 1.95 µM | TGI (HS 578T breast): 6.08 µM | GI50 (HT29 colon): 1.82 µM | TGI (HT29 colon): 4.88 µM | GI50 (K-562 leukemia): 2.44 µM | TGI (K-562 leukemia): > 100 µM | GI50 (KM12 colon): 1.7 µM | TGI (KM12 colon): 3.29 µM | GI50 (MALME-3M melanoma): 1.63 µM | TGI (MALME-3M melanoma): 4.13 µM | GI50 (MCF7 breast): 2.01 µM | TGI (MCF7 breast): 9.06 µM | GI50 (MDA-MB-231 breast): 1.84 µM | TGI (MDA-MB-231 breast): 5.3 µM | GI50 (MOLT-4 leukemia): 2.34 µM | TGI (MOLT-4 leukemia): > 100 µM | GI50 (NCI-H226 lung): 1.61 µM | TGI (NCI-H226 lung): 4.13 µM | GI50 (NCI-H460 lung): 1.85 µM | TGI (NCI-H460 lung): 4.76 µM | GI50 (NCI/ADR-RES ovarian): 13.5 µM | TGI (NCI/ADR-RES ovarian): > 100 µM | GI50 (OVCAR-3 ovarian): 1.2 µM | TGI (OVCAR-3 ovarian): 3.26 µM | GI50 (OVCAR-4 ovarian): 2.01 µM | TGI (OVCAR-4 ovarian): 7.52 µM | GI50 (OVCAR-5 ovarian): 1.49 µM | TGI (OVCAR-5 ovarian): 4.01 µM | GI50 (OVCAR-8 ovarian): 2.19 µM | TGI (OVCAR-8 ovarian): 6.83 µM | GI50 (PC-3 prostate): 0.905 µM | TGI (PC-3 prostate): 3.3 µM | GI50 (RPMI-8226 leukemia): 2.27 µM | TGI (RPMI-8226 leukemia): 9.78 µM | GI50 (RXF 393 renal): 1.21 µM | TGI (RXF 393 renal): 3.05 µM | GI50 (SF-268 CNS): 1.33 µM | TGI (SF-268 CNS): 3.19 µM | GI50 (SF-539 CNS): 1.56 µM | TGI (SF-539 CNS): 3.63 µM | GI50 (SK-MEL-2 melanoma): 2.43 µM | TGI (SK-MEL-2 melanoma): 6.21 µM | GI50 (SK-OV-3 ovarian): 2.05 µM | TGI (SK-OV-3 ovarian): 5.03 µM | GI50 (SNB-75 CNS): 0.711 µM | TGI (SNB-75 CNS): 3.97 µM | GI50 (SR leukemia): 0.697 µM | TGI (SR leukemia): > 100 µM | GI50 (SW-620 colon): 1.7 µM | TGI (SW-620 colon): 3.92 µM | GI50 (T-47D breast): 1.18 µM | TGI (T-47D breast): 4.66 µM | GI50 (TK-10 renal): 2.02 µM | TGI (TK-10 renal): 6.88 µM | GI50 (UACC-257 melanoma): 1.94 µM | TGI (UACC-257 melanoma): 6.2 µM

CN1CCN(Cc2ccc(NC(=O)c3cncc(C#Cc4cncc5ncccc45)c3)cc2C(F)(F)F)CC1
GI50 (786-0 renal): 9.81 µM | TGI (786-0 renal): 22.2 µM | GI50 (A498 renal): 0.323 µM | TGI (A498 renal): 3.43 µM | GI50 (A549 NSCLC): 3.86 µM | TGI (A549 NSCLC): 15.5 µM | GI50 (ACHN renal): 1.36 µM | TGI (ACHN renal): 10.5 µM | GI50 (BT-549 breast): 7.9 µM | TGI (BT-549 breast): 20.4 µM | GI50 (CAKI-1 renal): 4.74 µM | TGI (CAKI-1 renal): 16.4 µM | GI50 (CCRF-CEM leukemia): 3.27 µM | TGI (CCRF-CEM leukemia): 34.8 µM | GI50 (COLO 205 colon): 1.11 µM | TGI (COLO 205 colon): 13.2 µM | GI50 (DU-145 prostate): 4.64 µM | TGI (DU-145 prostate): 16.8 µM | GI50 (EKVX NSCLC): 3.91 µM | TGI (EKVX NSCLC): 16.8 µM | GI50 (HCC-2998 colon): 2.46 µM | TGI (HCC-2998 colon): 17.6 µM | GI50 (HCT-116 colon): 1.26 µM | TGI (HCT-116 colon): 11.5 µM | GI50 (HCT-15 colon): 3.9 µM | TGI (HCT-15 colon): 14.7 µM | GI50 (HL-60(TB) leukemia): 0.303 µM | TGI (HL-60(TB) leukemia): 2.02 µM | GI50 (HOP-62 NSCLC): 2.53 µM | TGI (HOP-62 NSCLC): 12 µM | GI50 (HOP-92 NSCLC): 1.16 µM | TGI (HOP-92 NSCLC): 4.92 µM | GI50 (HS 578T breast): 1.36 µM | TGI (HS 578T breast): 7.93 µM | GI50 (HT29 colon): 1.04 µM | TGI (HT29 colon): 11.9 µM | GI50 (IGROV1 ovarian): 1.16 µM | TGI (IGROV1 ovarian): 7.45 µM | TGI (K-562 leukemia): 11.4 µM | GI50 (KM12 colon): 0.0444 µM | TGI (KM12 colon): 11.7 µM | GI50 (LOX IMVI melanoma): 0.794 µM | TGI (LOX IMVI melanoma): 2.11 µM | GI50 (M14 melanoma): 0.961 µM | TGI (M14 melanoma): 5.09 µM | GI50 (MALME-3M melanoma): 0.284 µM | TGI (MALME-3M melanoma): 1.05 µM | GI50 (MCF7 breast): 3.28 µM | TGI (MCF7 breast): 15.7 µM | GI50 (MDA-MB-231 breast): 1.07 µM | TGI (MDA-MB-231 breast): 3.05 µM | GI50 (MDA-MB-435): 2.03 µM | TGI (MDA-MB-435): 12.9 µM | GI50 (MOLT-4 leukemia): 1.18 µM | TGI (MOLT-4 leukemia): 16 µM | GI50 (NCI-H226 lung): 0.467 µM | TGI (NCI-H226 lung): 11.8 µM | GI50 (NCI-H23 lung): 1.54 µM | TGI (NCI-H23 lung): 12.2 µM | GI50 (NCI-H460 lung): 2.5 µM | TGI (NCI-H460 lung): 11.8 µM | GI50 (NCI-H522 lung): 3.11 µM | TGI (NCI-H522 lung): 17 µM | GI50 (NCI/ADR-RES ovarian): 5.34 µM | TGI (NCI/ADR-RES ovarian): 18.9 µM | GI50 (OVCAR-3 ovarian): 6.32 µM | TGI (OVCAR-3 ovarian): 19.2 µM | GI50 (OVCAR-5 ovarian): 1.8 µM | TGI (OVCAR-5 ovarian): 14 µM | GI50 (OVCAR-8 ovarian): 4.53 µM | TGI (OVCAR-8 ovarian): 18.3 µM | GI50 (PC-3 prostate): 5.5 µM | TGI (PC-3 prostate): 24 µM | GI50 (RPMI-8226 leukemia): 3.59 µM | TGI (RPMI-8226 leukemia): 22.2 µM | GI50 (RXF 393 renal): 1.77 µM | TGI (RXF 393 renal): 6.46 µM | GI50 (SF-268 CNS): 3.99 µM | TGI (SF-268 CNS): 17.6 µM | GI50 (SF-295 CNS): 3.72 µM | TGI (SF-295 CNS): 15.8 µM | GI50 (SF-539 CNS): 0.829 µM | TGI (SF-539 CNS): 2.96 µM | GI50 (SK-MEL-2 melanoma): 0.542 µM | TGI (SK-MEL-2 melanoma): 2.48 µM | GI50 (SK-MEL-28 melanoma): 1.23 µM | TGI (SK-MEL-28 melanoma): 10.7 µM | GI50 (SK-MEL-5 melanoma): 2.95 µM | TGI (SK-MEL-5 melanoma): 13.6 µM | GI50 (SK-OV-3 ovarian): 2.89 µM | TGI (SK-OV-3 ovarian): 11.3 µM | GI50 (SN12C renal): 2.59 µM | TGI (SN12C renal): 11.8 µM | GI50 (SNB-19 CNS): 10.5 µM | TGI (SNB-19 CNS): 22.3 µM | GI50 (SNB-75 CNS): 5.83 µM | TGI (SNB-75 CNS): 18.8 µM | GI50 (SR leukemia): 3.23 µM | TGI (SR leukemia): 34.6 µM | GI50 (SW-620 colon): 1.83 µM | TGI (SW-620 colon): 10.4 µM | GI50 (T-47D breast): 10.9 µM | TGI (T-47D breast): 27.3 µM | GI50 (TK-10 renal): 4.18 µM | TGI (TK-10 renal): 15.4 µM | GI50 (U251 CNS): 9.49 µM | TGI (U251 CNS): 21.8 µM | GI50 (UACC-257 melanoma): 2.47 µM | TGI (UACC-257 melanoma): 12.4 µM | GI50 (UACC-62 melanoma): 1.67 µM | TGI (UACC-62 melanoma): 9.52 µM | GI50 (UO-31 renal): 1.25 µM | TGI (UO-31 renal): 6.35 µM
